The values that follow come from PMC8541513, “Stereoselective Synthesis of the Di-Spirooxindole Analogs Based Oxindole and Cyclohexanone Moieties as Potential Anticancer Agents” (Molecules, 2021).

One data set relates to Cervical HeLa. The data set is described as follows: MTT anticancer assay, cervical HeLa cells. The format is cell-based. The following applies: 48 h, 1-30 µM, ± SD of three independent experiments; for IC50: Homo sapiens, HeLa. The procedure: (§1) The antiproliferative activity against four cancer cell lines, including prostate PC3, cervical HeLa, and triple-negative breast cancer (MCF-7 and MDA-MB231) was evaluated by MTT assay, while standard drug doxorubicin was used as a reference for comparison (Table 1).
(§2) Cytotoxicity against BJ human fibroblast cells and cytotoxicity against PC3, HeLa, MCF-7, and MDA-MB231 cancer cell lines were evaluated by following the procedure as described in the literature (Supplementary Materials). […]
(§3) The Biological Activity Assays Protocols
(§4) Cytotoxic activity of compounds was evaluated in 96-well flat-bottomed micro plates by using the standard MTT (3-[4, 5-dimethylthiazole-2-yl]-2, 5-diphenyl-tetrazolium bromide) colorimetric assay.
(§5) For this purpose, PC3 cells (Prostate Cancer) / BJ Human fibroblast cells / HeLa cells (Cervical Cancer) / MCF-7 and MDA-MB-231 breast cancer cell line were cultured in Dulbecco’s Modified Eagle Medium, supplemented with 5% of fetal bovine serum (FBS), 100 IU/ml of penicillin and 100 µg/ml of streptomycin in 75 cm2 flasks, and kept in 5% CO2 incubator at 37 °C. Exponentially growing cells were harvested, counted with haemocytometer and diluted with a particular medium. Cell culture with the concentration of 1x10^5 cells/ml was prepared and introduced (100 µL/well) into 96-well plates. After overnight incubation, medium was removed and 200 µL of fresh medium was added with different concentrations of compounds (1-30µM). After 48 hrs, 200 µL MTT (0.5 mg/ml) was added to each well and incubated further for 4 hrs. Subsequently, 100µL of DMSO was added to each well. The extent of MTT reduction to formazan within cells was calculated by measuring the absorbance at 570 nm, using a micro plate reader (Spectra Max plus, Molecular Devices, CA, USA). The cytotoxicity was recorded […]
(§6) (1 picture or pasted object on this page, not shown here) […]
(§7) as concentration causing 50% growth inhibition (IC50) for PC3 cells. The percent inhibition was calculated by using the following formula:
(§8) % inhibition = 100-((mean of O.D of test compound – mean of O.D of negative control)/ (mean of O.D of positive control – mean of O.D of negative control)*100).
(§9) The results (% inhibition) were processed by using Soft- Max Pro software (Molecular Device, USA).
(§10) Standard drug used in the MTT assay was doxorubicin. […]
A general note: Tetrazolium assays rely on reduction of a dye to a coloured formazan, in cell work by metabolically active cells.

The test system of the next data set is Breast MCF-7. The data set is described as follows: MTT anticancer assay, breast MCF-7 cells. The following applies: Homo sapiens, MCF7, 48 h, 1-30 µM, ± SD of three independent experiments. The format is cell-based. The procedure:
as §1, §2, §3, §4, §5, §6, §7, §8, §9, §10

For a further data set, the system named is Breast MDA-MB231. The data set is described as follows: MTT anticancer assay, breast MDA-MB231 cells. On the set-up: key to IC50, Breast MDA-MB231: NA means that the tested compound did not show anticancer activity at 30 µM; NS: Not soluble. The format is cell-based. Particulars: 1-30 µM, ± SD of three independent experiments; for IC50: Homo sapiens, MDA-MB-231, 48 h. How it is done:
as §1, §2, §3, §4, §5, §6, §7, §8, §9, §10

Another data set concerns Human Fibroblast BJ. The data set can be described thus: MTT cytotoxicity assay against BJ human fibroblast cells. The format is cell-based. The following applies: 48 h, 1-30 µM, ± SD of three independent experiments. How it is done:
as §2, §3, §4, §5, §6, §7, §8, §9, §10

Another data set relates to Prostate PC3. The data set can be described thus: MTT anticancer assay, prostate PC3 cells. Type of data set: cell-based. The following applies: Homo sapiens, PC-3, 48 h, 1-30 µM, ± SD of three independent experiments. The procedure:
as §1, §2, §3, §4, §5, §6, §7, §8, §9, §10

Compound `O=C1/C(=C/c2ccc(Br)cc2)CCC[C@@]12[C@H](c1ccc(Br)cc1)[C@H]1C[C@@H]3CCCC[C@@H]3N1[C@]21C(=O)Nc2ccc([N+](=O)[O-])cc21` [Compound 4g, (1. S,1′S,3′S,4a′S,8a′S,9a′R)-3-((E)-4-bromobenzylidene)-1′-(4-bromophenyl)-5″-nitro-4a′,5′,6′,7′,8′,8a′,9′,9a′-octahydro-1′H-dispiro[cyclohexane-1,2′-pyrrolo[1,2-a]indole-3′,3″-indoline]-2,2″-dione] had a melting point of 125 to 126 °C. The compound further yielded an IC50 with Cervical HeLa of over 30 µM. In addition, in the data set on Breast MCF-7, the half-maximal inhibitory concentration (IC50) is over 30 µM. For the same compound, in the data set on Breast MDA-MB231 (48 h), the “IC50, Breast MDA-MB231” value was “NS”. The compound also yielded an IC50 with Human Fibroblast BJ of 21.7 ± 0.2 µM. In addition, the midpoint of inhibition with Prostate PC3, the IC50, lay at 14.3 ± 1 µM.

As to `O=C1/C(=C/c2cccc(F)c2)CCC[C@@]12[C@H](c1cccc(F)c1)[C@H]1C[C@@H]3CCCC[C@@H]3N1[C@]21C(=O)Nc2ccc([N+](=O)[O-])cc21` [Compound 4i, (1. S,1′S,3′S,4a′S,8a′S,9a′R)-3-((E)-3-Fluorobenzylidene)-1′-(3-fluorophenyl)-5″-nitro-4a′,5′,6′,7′,8′,8a′,9′,9a′-octahydro-1′H-dispiro[cyclohexane-1,2′-pyrrolo[1,2-a]indole-3′,3″-indoline]-2,2″-dione], the melting point lay within 107 to 108 °C. In addition, the IC50 with Cervical HeLa was over 30 µM. In the data set with Breast MCF-7, the IC50 is over 30 µM. Moreover, the midpoint of inhibition in the data set on Breast MDA-MB231, the IC50, lay at 7.63 ± 0.08 µM. In the data set on Human Fibroblast BJ, this compound showed an IC50 of over 30 µM. The IC50 in the data set with Prostate PC3 was over 30 µM.

`COc1ccc2c(c1)[C@]1(C(=O)N2)N2[C@H](C[C@@H]3CCCC[C@@H]32)[C@@H](c2ccccc2)[C@@]12CCC/C(=C\c1ccccc1)C2=O` [Compound 4e, (1. S,1′S,3′S,4a′S,8a′S,9a′R)-3-((E)-Benzylidene)-5″-methoxy-1′-phenyl-4a′,5′,6′,7′,8′,8a′,9′,9a′-octahydro-1′H-dispiro[cyclohexane-1,2′-pyrrolo[1,2-a]indole-3′,3″-indoline]-2,2″-dione] registered a melting point of 111 to 122 °C. In the data set on Cervical HeLa, inhibition was half-maximal at 26.5 ± 0.04 µM (IC50). The same compound had an IC50 in the data set on Breast MCF-7 of over 30 µM. In addition, the IC50 in the data set on Breast MDA-MB231 is over 30 µM. This compound also registered an IC50 in the data set with Human Fibroblast BJ of over 30 µM. The compound also yielded an IC50 with Prostate PC3 of 19.6 ± 1.2 µM.

Turning to `O=C1/C(=C/c2cccc(Br)c2)CCC[C@@]12[C@H](c1cccc(Br)c1)[C@H]1C[C@@H]3CCCC[C@@H]3N1[C@]21C(=O)Nc2cc(Cl)ccc21` [Compound 4k, (1. S,1′S,3′S,4a′S,8a′S,9a′R)-3-((E)-3-Bromobenzylidene)-1′-(3-bromophenyl)-6″-chloro-4a′,5′,6′,7′,8′,8a′,9′,9a′-octahydro-1′H-dispiro[cyclohexane-1,2′-pyrrolo[1,2-a]indole-3′,3″-indoline]-2,2″-dione], the melting point lay in the range of 115 to 116 °C. In addition, in the data set with Cervical HeLa, the “IC50, Cervical HeLa” value was “inactive” and the IC50 is over 30 µM. In addition, the IC50 with Breast MCF-7 is over 30 µM. The IC50 in the data set with Breast MDA-MB231 was over 30 µM. In the data set with Human Fibroblast BJ, this compound yielded an IC50 of over 30 µM. Besides, the IC50 in the data set on Prostate PC3 is over 30 µM.

Take `O=C1/C(=C/c2ccccc2)CCC[C@@]12[C@H](c1ccccc1)[C@H]1C[C@@H]3CCCC[C@@H]3N1[C@]21C(=O)Nc2cc(Cl)ccc21` [Compound 4b, (1. S,1′S,3′S,4a′S,8a′S,9a′R)-3-((E)-Benzylidene)-6″-chloro-1′-phenyl-4a′,5′,6′,7′,8′,8a′,9′,9a′-octahydro-1′H-dispiro[cyclohexane-1,2′-pyrrolo[1,2-a]indole-3′,3″-indoline]-2,2″-dione]: the IC50 in the data set on Cervical HeLa was over 30 µM; with Breast MCF-7, 27.7 ± 0.59 µM; in the data set with Breast MDA-MB231, 24.08 ± 0.02 µM; with Human Fibroblast BJ, over 30 µM; in the data set on Prostate PC3, 3.7 ± 1 µM.

`O=C1/C(=C/c2cccc(F)c2)CCC[C@@]12[C@H](c1cccc(F)c1)[C@H]1C[C@@H]3CCCC[C@@H]3N1[C@]21C(=O)Nc2cc(Cl)ccc21` [Compound 4h, (1. S,1′S,3′S,4a′S,8a′S,9a′R)-6″-Chloro-3-((E)-3-fluorobenzylidene)-1′-(3-fluorophenyl)-4a′,5′,6′,7′,8′,8a′,9′,9a′-octahydro-1′H-dispiro[cyclohexane-1,2′-pyrrolo[1,2-a]indole-3′,3″-indoline]-2,2″-dione]: the melting point was 83 to 84 °C. In the data set on Cervical HeLa, this compound registered an IC50 of over 30 µM. Besides, the IC50 in the data set with Breast MCF-7 is over 30 µM. This compound also showed an IC50 with Breast MDA-MB231 of 14.43 ± 0.09 µM. Also, in the data set with Human Fibroblast BJ, the IC50 was over 30 µM. For the same compound, in the data set on Prostate PC3, the IC50 is over 30 µM.

Take `O=C1/C(=C/c2ccccc2)CCC[C@@]12[C@H](c1ccccc1)[C@H]1C[C@@H]3CCCC[C@@H]3N1[C@]21C(=O)Nc2ccccc21` [Compound 4a, (1. S,1′S,3′S,4a′S,8a′S,9a′R)-3-((E)-Benzylidene)-1′-phenyl-4a′,5′,6′,7′,8′,8a′,9′,9a′-octahydro-1′H-dispiro[cyclohexane-1,2′-pyrrolo[1,2-a]indole-3′,3″-indoline]-2,2″-dione]: the melting point fell in the range of 70 to 71 °C. In addition, the IC50 in the data set on Cervical HeLa was found to be 7.1 ± 0.2 µM. In the data set with Breast MCF-7, this compound displayed an IC50 of 25 ± 0.57 µM. The compound also had an IC50 with Breast MDA-MB231 of 19.5 ± 0.56 µM. The IC50 in the data set on Human Fibroblast BJ was over 30 µM. This compound had an IC50 in the data set on Prostate PC3 of 24.1 ± 1.1 µM.

In turn, `O=C1/C(=C/c2ccccc2)CCC[C@@]12[C@H](c1ccccc1)[C@H]1C[C@@H]3CCCC[C@@H]3N1[C@]21C(=O)Nc2ccc([N+](=O)[O-])cc21` [Compound 4d, (1. S,1′S,3′S,4a′S,8a′S,9a′R)-3-((E)-Benzylidene)-5″-nitro-1′-phenyl-4a′,5′,6′,7′,8′,8a′,9′,9a′-octahydro-1′H-dispiro[cyclohexane-1,2′-pyrrolo[1,2-a]indole-3′,3″-indoline]-2,2″-dione] came in with a melting point of 111 to 122 °C. The same compound yielded an IC50 in the data set on Cervical HeLa of over 30 µM. This compound also had an IC50 in the data set with Breast MCF-7 of over 30 µM. For the same compound, in the data set on Breast MDA-MB231, the IC50 is over 30 µM. Moreover, the IC50 in the data set on Human Fibroblast BJ was over 30 µM. In addition, in the data set on Prostate PC3, half-maximal inhibition (IC50) required 29.8 ± 0.1 µM.

Consider `O=C1/C(=C/c2ccc(F)cc2)CCC[C@@]12[C@H](c1ccc(F)cc1)[C@H]1C[C@@H]3CCCC[C@@H]3N1[C@]21C(=O)Nc2cc(Cl)ccc21` [Compound 4l, (1. S,1′S,3′S,4a′S,8a′S,9a′R)-6″-Chloro-3-((E)-4-fluorobenzylidene)-1′-(4-fluorophenyl)-4a′,5′,6′,7′,8′,8a′,9′,9a′-octahydro-1′H-dispiro[cyclohexane-1,2′-pyrrolo[1,2-a]indole-3′,3″-indoline]-2,2″-dione], for which the melting point is 96 to 97 °C. Also, in the data set on Cervical HeLa, the IC50 amounted to 7.2 ± 0.5 µM. Besides, the IC50 with Breast MCF-7 is over 30 µM. Further, in the data set with Breast MDA-MB231, the IC50 was found to be 14.45 ± 0.08 µM. For the same compound, the IC50 with Human Fibroblast BJ is over 30 µM. The compound also displayed an IC50 in the data set with Prostate PC3 of over 30 µM.

In turn, `O=C1/C(=C/c2ccccc2)CCC[C@@]12[C@H](c1ccccc1)[C@H]1C[C@@H]3CCCC[C@@H]3N1[C@]21C(=O)Nc2ccc(F)cc21` [Compound 4c, (1. S,1′S,3′S,4a′S,8a′S,9a′R)-3-((E)-Benzylidene)-5″-fluoro-1′-phenyl-4a′,5′,6′,7′,8′,8a′,9′,9a′-octahydro-1′H-dispiro[cyclohexane-1,2′-pyrrolo[1,2-a]indole-3′,3″-indoline]-2,2″-dione] gave a melting point of 70 to 71 °C. In addition, the IC50 in the data set with Cervical HeLa was over 30 µM. Moreover, 27.8 ± 1.02 µM corresponded to half-maximal inhibition in the data set with Breast MCF-7 (IC50). Besides, the IC50 in the data set with Breast MDA-MB231 is 20.6 ± 2.16 µM. In the data set with Human Fibroblast BJ, this compound gave an IC50 of over 30 µM. The compound also yielded an IC50 in the data set on Prostate PC3 of 17.9 ± 0.2 µM.

For the compound `COc1ccc2c(c1)[C@]1(C(=O)N2)N2[C@H](C[C@@H]3CCCC[C@@H]32)[C@@H](c2cccc(F)c2)[C@@]12CCC/C(=C\c1cccc(F)c1)C2=O` [Compound 4j, (1. S,1′S,3′S,4a′S,8a′S,9a′R)-3-((E)-3-Fluorobenzylidene)-1′-(3-fluorophenyl)-5″-methoxy-4a′,5′,6′,7′,8′,8a′,9′,9a′-octahydro-1′H-dispiro[cyclohexane-1,2′-pyrrolo[1,2-a]indole-3′,3″-indoline]-2,2″-dione], the melting point lay within 92 to 93 °C. Moreover, it took 11.9 ± 0.04 µM to reach half-maximal inhibition with Cervical HeLa (IC50). Moreover, the 50% inhibitory concentration (IC50) in the data set with Breast MCF-7 was over 30 µM. Besides, the IC50 in the data set on Breast MDA-MB231 worked out at 10.5 ± 0.71 µM. Further, the IC50 with Human Fibroblast BJ is over 30 µM. Further, in the data set with Prostate PC3, the IC50 is over 30 µM.

By IC50 is commonly meant the concentration that inhibits the measured activity by half. For orientation: melting point means the temperature of the solid-liquid transition.
